Read-outs that look alike come from different tables or passages of the source.
How the values were obtained:
wild-type BRAF protein = settings: read-out: EC50 for the wild-type BRAF protein; preclinical; cited from earlier work
BRAF V600E = settings: read-out: EC50 for BRAF V600E; preclinical data; cited from earlier work
[1] = Pharmacokinetics, unchanged RAF265 in plasma; format: in vivo, human; settings: for Cmin, Mean (SD): Steady State (average of troughs from Cycle 2 Day 1 onwards); for AUC(0-t) / Cmax / Tmax / half-life: human, plasma, oral; for AUC(0-t): read-out: AUC(0-tlast), Mean (SD); for Cmax: read-out: Cmax, Mean (SD); for Tmax: read-out: Tmax, Median
Procedure: PK parameters included the maximum observed concentration (C max), time to reach C max (T max), area under the curve from time 0 to last measurable concentration (AUClast), time point of the last measurable concentration (T last), and terminal half‐life of elimination phase (T 1/2). Cycle 1 Day 1 and day 15, reported PK parameters include C max, T max, AUClast and T last. Following log‐transformation, the PK parameters AUC and C max from the PK run‐in were analyzed separately using a mixed effects model fitting terms for dose and patient (Patient treated as a random factor)‐ln(PK parameter) = a + b*ln(Dose)+error. In this model, the dose‐exposure relationship is mainly characterized by the slope parameter b. A slope lower (higher) than 1 indicates an under (over) proportional dose‐exposure relationship. The point estimate and associated 90% CI for the slope parameter were determined for safety considerations.

[2] = 2 mg, Cycle 1 Day 15, DL 1, MD 2 mg
[3] = 3 mg, Cycle 1 Day 15, DL 2, MD 3 mg
[4] = 6 mg, Cycle 1 Day 15, DL 3, MD 6 mg
[5] = 8 mg, Cycle 1 Day 1, DL 1, LD 8 mg
[6] = 10 mg, First dose (PK run-in), DL 1, 10 mg
[7] = 12 mg, Cycle 1 Day 15, DL 4, MD 12 mg
[8] = 16 mg, Cycle 1 Day 1, DL 2, LD 16 mg
[9] = 20 mg, First dose (PK run-in), DL 2, 20 mg
[10] = 24 mg, Cycle 1 Day 15, DL 5, MD 24 mg
[11] = 29 mg, Cycle 1 Day 1, DL 3, LD 29 mg
[12] = 36 mg, First dose (PK run-in), DL 3, 36 mg
[13] = 48 mg, Cycle 1 Day 15, DL 6, MD 48 mg
[14] = 58 mg, Cycle 1 Day 1, DL 4, LD 58 mg
[15] = 67 mg, Cycle 1 Day 15, DL 7, MD 67 mg
[16] = 67 mg, Cycle 1 Day 15, DL 7.1, MD 67 mg
[17] = 72 mg, First dose (PK run-in), DL 4, 72 mg
[18] = 115 mg, Cycle 1 Day 1, DL 5, LD 115 mg
[19] = 144 mg, First dose (PK run-in), DL 5, 144 mg
[20] = 230 mg, Cycle 1 Day 1, DL 6, LD 230 mg
[21] = 288 mg, Cycle 1 Day 1, DL 7.1, LD 288 mg as three doses
[22] = 288 mg, First dose (PK run-in), DL 6, 288 mg
[23] = 322 mg, Cycle 1 Day 1, DL 7, LD 322 mg
[24] = 403 mg, First dose (PK run-in), DL 7, 403 mg

## Cn1c(Nc2ccc(C(F)(F)F)cc2)nc2cc(Oc3ccnc(-c4ncc(C(F)(F)F)[nH]4)c3)ccc21 [RAF265]
wild-type BRAF protein
  EC50: […]
BRAF V600E
  EC50: […]
[1]; Cycle 1 Day 1, DL 1, LD 8 mg
  Tlast, Median: […]
[1]; Cycle 1 Day 1, DL 2, LD 16 mg
  Tlast, Median: […]
[1]; Cycle 1 Day 1, DL 3, LD 29 mg
  Tlast, Median: […]
[1]; Cycle 1 Day 1, DL 4, LD 58 mg
  Tlast, Median: […]
[1]; Cycle 1 Day 1, DL 5, LD 115 mg
  Tlast, Median: […]
[1]; Cycle 1 Day 1, DL 6, LD 230 mg
  Tlast, Median: […]
[1]; Cycle 1 Day 1, DL 7, LD 322 mg
  Tlast, Median: […]
[1]; Cycle 1 Day 1, DL 7.1, LD 288 mg as three doses
  Tlast, Median: […]
[1]; Cycle 1 Day 15, DL 1, MD 2 mg
  Tlast, Median: […]
[1]; Cycle 1 Day 15, DL 2, MD 3 mg
  Tlast, Median: […]
[1]; Cycle 1 Day 15, DL 3, MD 6 mg
  Tlast, Median: […]
[1]; Cycle 1 Day 15, DL 4, MD 12 mg
  Tlast, Median: […]
[1]; Cycle 1 Day 15, DL 5, MD 24 mg
  Tlast, Median: […]
[1]; Cycle 1 Day 15, DL 6, MD 48 mg
  Tlast, Median: […]
[1]; Cycle 1 Day 15, DL 7, MD 67 mg
  Tlast, Median: […]
[1]; Cycle 1 Day 15, DL 7.1, MD 67 mg
  Tlast, Median: […]
[1]; First dose (PK run-in), DL 1, 10 mg
  Tlast, Median: […]
[1]; First dose (PK run-in), DL 2, 20 mg
  Tlast, Median: […]
[1]; First dose (PK run-in), DL 3, 36 mg
  Tlast, Median: […]
[1]; First dose (PK run-in), DL 4, 72 mg
  Tlast, Median: […]
[1]; First dose (PK run-in), DL 5, 144 mg
  Tlast, Median: […]
[1]; First dose (PK run-in), DL 6, 288 mg
  Tlast, Median: […]
[1]; First dose (PK run-in), DL 7, 403 mg
  Tlast, Median: […]
[1]; DL 1, MD 2 mg
  Cmin, Mean (SD): […]
[1]; DL 2, MD 3 mg
  Cmin, Mean (SD): […]
[1]; DL 3, MD 6 mg
  Cmin, Mean (SD): […]
[1]; DL 4, MD 12 mg
  Cmin, Mean (SD): […]
[1]; DL 5, MD 24 mg
  Cmin, Mean (SD): […]
[1]; DL 6, MD 48 mg
  Cmin, Mean (SD): […]
[1]; DL 7, MD 67 mg
  Cmin, Mean (SD): […]
[1]; DL 7.1, MD 67 mg
  Cmin, Mean (SD): […]
[1]; across dose levels
  dose dependence of mean Cmax and AUC: increased nearly proportionally with dose
[1]; [2]
  AUC(0-t): […]
  Cmax: […]
  Tmax: […]
[1]; [3]
  AUC(0-t): […]
  Cmax: […]
  Tmax: […]
[1]; [4]
  AUC(0-t): […]
  Cmax: […]
  Tmax: […]
[1]; [5]
  AUC(0-t): […]
  Cmax: […]
  Tmax: […]
[1]; [6]
  AUC(0-t): […]
  Cmax: […]
  Tmax: […]
[1]; 10 mg, First dose (PK run-in), DL 1, 10 mg, read-out: T1/2, Median (converted)
  half-life: […]
[1]; [7]
  AUC(0-t): […]
  Cmax: […]
  Tmax: […]
[1]; [8]
  AUC(0-t): […]
  Cmax: […]
  Tmax: […]
[1]; [9]
  AUC(0-t): […]
  Cmax: […]
  Tmax: […]
[1]; 20 mg, First dose (PK run-in), DL 2, 20 mg, read-out: T1/2, Median (converted)
  half-life: […]
[1]; [10]
  AUC(0-t): […]
  Cmax: […]
  Tmax: […]
[1]; [11]
  AUC(0-t): […]
  Cmax: […]
  Tmax: […]
[1]; [12]
  AUC(0-t): […]
  Cmax: […]
  Tmax: […]
[1]; 36 mg, First dose (PK run-in), DL 3, 36 mg, read-out: T1/2, Median (converted)
  half-life: […]
[1]; [13]
  AUC(0-t): […]
  Cmax: […]
  Tmax: […]
[1]; [14]
  AUC(0-t): […]
  Cmax: […]
  Tmax: […]
[1]; [15]
  AUC(0-t): […]
  Cmax: […]
  Tmax: […]
[1]; [16]
  AUC(0-t): […]
  Cmax: […]
  Tmax: […]
[1]; [17]
  AUC(0-t): […]
  Cmax: […]
  Tmax: […]
[1]; 72 mg, First dose (PK run-in), DL 4, 72 mg, read-out: T1/2, Median (converted)
  half-life: […]
[1]; [18]
  AUC(0-t): […]
  Cmax: […]
  Tmax: […]
[1]; [19]
  AUC(0-t): […]
  Cmax: […]
  Tmax: […]
[1]; 144 mg, First dose (PK run-in), DL 5, 144 mg, read-out: T1/2, Median (converted)
  half-life: […]
[1]; [20]
  AUC(0-t): […]
  Cmax: […]
  Tmax: […]
[1]; [21]
  Cmax: 1130 ng/mL
[1]; [22]
  AUC(0-t): […]
  Cmax: […]
  Tmax: […]
[1]; 288 mg, First dose (PK run-in), DL 6, 288 mg, read-out: T1/2, Median (converted)
  half-life: […]
[1]; [23]
  Cmax: 2720 ng/mL
[1]; [24]
  AUC(0-t): […]
  Cmax: […]
  Tmax: […]
[1]; 403 mg, First dose (PK run-in), DL 7, 403 mg, read-out: T1/2, Median (converted)
  half-life: […]
[1]; patients, read-out: half-life (converted)
  half-life: […]
[1]; patients, read-out: serum half-life (converted)
  half-life: […]

Reference: article PMC5548886 (Cancer Medicine, 2017)
